Experimental data from ChEMBL document CHEMBL1130881, “Novel imidazole derivatives with subtype-selective antimuscarinic activity (1)” (Bioorg Med Chem Lett, 1998).

Target: Muscarinic acetylcholine receptor M3 (Cavia porcellus) (UniProt Q8VH26)
Assay: Antimuscarinic activity was evaluated against muscarinic M3 receptor in Guinea-Pig ileum
Assay type: tissue-based

Chain of Muscarinic acetylcholine receptor M3 (Cavia porcellus) (Q8VH26 1-587): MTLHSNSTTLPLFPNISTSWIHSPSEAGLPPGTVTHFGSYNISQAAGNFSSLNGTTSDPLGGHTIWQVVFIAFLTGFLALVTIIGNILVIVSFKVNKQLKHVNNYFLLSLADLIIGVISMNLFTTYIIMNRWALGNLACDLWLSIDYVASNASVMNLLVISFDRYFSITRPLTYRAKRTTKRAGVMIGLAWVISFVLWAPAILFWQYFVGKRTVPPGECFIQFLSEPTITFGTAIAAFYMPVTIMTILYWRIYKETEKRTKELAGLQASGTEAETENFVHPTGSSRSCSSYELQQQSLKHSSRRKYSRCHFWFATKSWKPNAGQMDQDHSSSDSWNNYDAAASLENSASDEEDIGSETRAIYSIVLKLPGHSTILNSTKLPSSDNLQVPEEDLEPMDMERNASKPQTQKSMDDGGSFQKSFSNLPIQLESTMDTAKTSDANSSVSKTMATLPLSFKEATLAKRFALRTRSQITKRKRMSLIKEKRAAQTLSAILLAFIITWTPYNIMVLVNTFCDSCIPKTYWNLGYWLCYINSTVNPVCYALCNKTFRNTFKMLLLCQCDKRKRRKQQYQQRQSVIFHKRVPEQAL

SMILES: CCCc1nccn1CCC(C(N)=O)(c1ccccc1)c1ccccc1
- Kb: 177 nM

SMILES: c1ccc(C(CCn2ccnc2)c2ccccc2)cc1
- Kb: 89.1 nM

SMILES: NC(=O)C(CCn1cnc2ccccc21)(c1ccccc1)c1ccccc1
- Kb: 2130 nM

SMILES: CC(CC(c1ccccc1)c1ccccc1)NC(C)(C)C (centres undefined)
- Kb: 67.7 nM

SMILES: Cc1cn(CCC(C(N)=O)(c2ccccc2)c2ccccc2)cn1
- Kb: 10.1 nM

SMILES: CC(C)(C)c1nccn1CCC(C(N)=O)(c1ccccc1)c1ccccc1
- Kb: 30.2 nM

SMILES: Cc1cncn1CCC(C(N)=O)(c1ccccc1)c1ccccc1
- Kb: 0.86 nM

SMILES: CCc1ncn(CCC(C(N)=O)(c2ccccc2)c2ccccc2)c1CC
- Kb: 3.98 nM

SMILES: CCCc1ncn(CCC(C(N)=O)(c2ccccc2)c2ccccc2)c1CCC
- Kb: 100 nM

SMILES: CC(C)c1nccn1CCC(C(N)=O)(c1ccccc1)c1ccccc1
- Kb: 1.8 nM

SMILES: CC(C)(C)NCCC(c1ccccc1)c1ccccc1
- Kb: 792 nM

SMILES: c1ccc(C(CCN2CCCCC2)c2ccccc2)cc1
- Kb: 69.6 nM

SMILES: Cc1ncn(CCC(C(N)=O)(c2ccccc2)c2ccccc2)c1C
- Kb: 2.7 nM

SMILES: NC(=O)C(CCn1ccnc1)(c1ccccc1)c1ccccc1
- Kb: 5.07 nM

SMILES: CCc1nccn1CCC(C(N)=O)(c1ccccc1)c1ccccc1
- Kb: 78.1 nM

SMILES: CCN(CC)CCC(c1ccccc1)c1ccccc1
- Kb: 197 nM

SMILES: NC(=O)C(CCN1CCCC1)(c1ccccc1)c1ccccc1
- Kb: 5.59 nM

SMILES: N#CC(CCN1CCCC1)(c1ccccc1)c1ccccc1
- Kb: 65.7 nM

SMILES: Cc1nccn1CCC(C(N)=O)(c1ccccc1)c1ccccc1
- Kb: 0.32 nM
